Patent US20260130857A1, “SUSTAINED-RELEASE INJECTABLE COMPOSITION FOR TREATING OR PREVENTING INFLAMMATORY DISEASE, AND METHOD FOR PREPARING SAME” (INVENTAGE LAB INC., priority 2022, published 2026)

Columns and labels:
[1] = Rat pharmacokinetic test, single subcutaneous injection; set-up: species or system SD rats; conditions: male, SD, in vivo, CBD solution 300 μg/head, IVL5005 9 mg/head, rat serum, read-out: blood CBD concentration
Excerpt: The experimental conditions for conducting the rat pharmacokinetic test are as follows:
CBD isolate solution was used as a control. As experimental animals, 6-week-old male SD rats were purchased from Coretech, acclimated for a week, and then tested. The experimental diet was a general feed for experimental animals (Orient), and the rats were raised with free access to water and feed.
At a total of 14 time points, including time 0 (before SC administration of the test substance to the acclimated rats) and 4 hr, 8 hr, 24 hr, 3 d, 5 d, 1 w, 2 w, 4 w, 6 w, 8 w, and 12 w after SC administration of the test substance, 500 to 1,000 μL of blood was sampled from the jugular vein at each time point, and then immediately, the blood was centrifuged at 1,000 g for 10 minutes to separate the serum, which was then frozen and stored at −70° C.

MIA-OA model [2] = experiment: Paw withdrawal threshold test in osteoarthritis model; type: in vivo, rats; conditions: thereafter (later than 2 hours after administration)
Method: After acclimatization, rats were divided into groups, and the area around the left lower limb knee joint of each rate was shaved clean. Then, MIA (monosodium iodoacetate, Sigma, USA), an osteoarthritis-inducing substance, was prepared at a concentration of 60 mg/mL in 0.9% sterile saline and 50 μL was administered intra-articularly to each rat using a BD Ultra-Fine™ II Insulin Syringe. The right knee joint was administered only the same volume of 0.9% sterile saline. Two weeks after MIA administration, the test substances shown in Table 5 below were administered intra-articularly, and the therapeutic efficacy thereof was evaluated. […]
The paw withdrawal response was measured before MIA administration (day 0) and 7 days and 14 days after MIA administration (before test drug administration), and the paw withdrawal response was evaluated after applying mechanical stimulation using an electronic von-Frey aesthesiometer (IITC Life Science, USA) 2 hours, 4 hours, 4 days, 7 days, 11 days, 14 days, 21 days, and 28 days after test drug administration. […] In the measurement method, an electronic von-Frey filament was applied perpendicular to the sole of the paw, the threshold (g force) value at which a rapid withdrawal response occurred was measured. The measurement results were analyzed as the ratio of g forces measured on the left and right paws (left/right). […]

[3] = Body weight measurement in MIA-induced osteoarthritis trial; type: in vivo; conditions: MIA rats, single IA dose: CBD solution 300 ug/joint, Examples 2 and 4 2 mg/joint, Example 3 1 mg/joint; test period
Method: (§1) After acclimatization, rats were divided into groups, and the area around the left lower limb knee joint of each rate was shaved clean. Then, MIA (monosodium iodoacetate, Sigma, USA), an osteoarthritis-inducing substance, was prepared at a concentration of 60 mg/mL in 0.9% sterile saline and 50 μL was administered intra-articularly to each rat using a BD Ultra-Fine™ II Insulin Syringe. The right knee joint was administered only the same volume of 0.9% sterile saline. Two weeks after MIA administration, the test substances shown in Table 5 below were administered intra-articularly, and the therapeutic efficacy thereof was evaluated.
(§2) CBD solution and Examples 2 to 4 were each administered to the left knee joint cavity 14 days after MIA administration, and only the same amount of 0.9% sterile saline was administered to the right knee joint. The normal control and positive control groups were also administered the same amount of 0.9% saline.
However, when CBD was administered, it was confirmed that the body weight gain increased compared to that in the positive control as feed intake activity was improved due to a decrease in pain. This tendency was particularly significant in Examples 3 and 4.

MIA-OA model [4] = experiment: Trial for treatment of osteoarthritis (OA): weight-bearing and paw withdrawal tests taken together; type: in vivo, rats
Method: as §1, §2

C=C(C)[C@@H]1CCC(C)=C[C@H]1c1c(O)cc(CCCCC)cc1O [CBD solution, Cannabidiol]
concentration at 1 w ([1]; 1 w after single SC): 361 ng/mL
concentration at 2 w ([1]; 2 w after single SC): 0 ng/mL
concentration at 4 w ([1]; 4 w after single SC): 0 ng/mL
concentration at 7 w ([1]; 7 w after single SC): 0 ng/mL
concentration at 1 d ([1]; 1 d after single SC): 3940 ng/mL
paw withdrawal threshold ratio compared to control group (MIA-OA model [2]): no difference
body weight gain compared to positive control group [3]: tended to increase
therapeutic effect compared to the PC group (MIA-OA model [4]; after the early stage / long term (to day 28)): no difference from the PC group
therapeutic effect compared to the PC group (MIA-OA model [4]; early stage of administration): showed an effect
